Several values for one entry are separate records, joined by “and”; a condition that tells them apart may be missing. Equal values may be shown once. Toxic doses and inconclusive results are not listed.
System: L1210 leukemia ip in BDF1 mice, survival T/C
Assay: NCI In Vivo Anticancer Drug Screen. Data for tumor model L1210 Leukemia (intraperitoneal) in B6D2F1 (BDF1) mice
Details: endpoint: mean survival time, higher = longer survival
In short: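 In this screen, tumor-bearing mice given compound are compared to those given vehicle, and their survival values are reported as a treated-to-control quotient.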

[1] = dose: 100.0 mg/kg/injection, schedule: Q01DX009 (ip), vehicle: Klucel (hydroxypropylcellulose) (HPC)
[2] = dose: 100.0 mg/kg/injection, schedule: Q04DX003 (ip), vehicle: Klucel (hydroxypropylcellulose) (HPC)
[3] = dose: 200.0 mg/kg/injection, schedule: Q01DX009 (ip), vehicle: Klucel (hydroxypropylcellulose) (HPC)
[4] = dose: 200.0 mg/kg/injection, schedule: Q04DX003 (ip), vehicle: Klucel (hydroxypropylcellulose) (HPC)
[5] = dose: 400.0 mg/kg/injection, schedule: Q01DX009 (ip), vehicle: Klucel (hydroxypropylcellulose) (HPC)

COc1ccc(C2=CCCC2)cc1
T/C (dose: 100.0 mg/kg/injection, schedule: Q01DX001 (ip), vehicle: carboxymethylcellulose (CMC)): 91 % of control | T/C [1]: 89 % of control | T/C [2]: 96 % of control | T/C (dose: 200.0 mg/kg/injection, schedule: Q01DX001 (ip), vehicle: carboxymethylcellulose (CMC)): 94 % of control | T/C [3]: 102 % of control | T/C [4]: 101 % of control | T/C (dose: 400.0 mg/kg/injection, schedule: Q01DX001 (ip), vehicle: carboxymethylcellulose (CMC)): 96 % of control | T/C [5]: 89 % of control | T/C (dose: 400.0 mg/kg/injection, schedule: Q04DX003 (ip), vehicle: Klucel (hydroxypropylcellulose) (HPC)): 102 % of control

CCCCCCOC(=O)C(N)Cc1ccc(O)c(N(CCCl)CCCl)c1 (stereo not drawn)
T/C (dose: 0.01 mg/kg/injection, schedule: Q01DX009 (ip), vehicle: saline): 123 % of control | T/C (dose: 0.12 mg/kg/injection, schedule: Q01DX001 (ip), vehicle: saline): 159 % of control | T/C (dose: 0.3 mg/kg/injection, schedule: Q01DX009 (ip), vehicle: saline): 163 % of control | T/C (dose: 0.5 mg/kg/injection, schedule: Q01DX001 (ip), vehicle: saline): 313 % of control | T/C (dose: 0.6 mg/kg/injection, schedule: Q01DX009 (ip), vehicle: saline): 221 % of control | T/C (dose: 1.0 mg/kg/injection, schedule: Q01DX001 (ip), vehicle: saline): 120 % of control | T/C (dose: 1.1 mg/kg/injection, schedule: Q01DX009 (ip), vehicle: saline): 210 % of control | T/C (dose: 2.2 mg/kg/injection, schedule: Q01DX001 (ip), vehicle: saline): 198 % of control | T/C (dose: 2.5 mg/kg/injection, schedule: Q01DX001 (ip), vehicle: saline): 163 % of control | T/C (dose: 3.3 mg/kg/injection, schedule: Q01DX001 (ip), vehicle: saline): 153 % of control | T/C (dose: 5.0 mg/kg/injection, schedule: Q01DX001 (ip), vehicle: saline): 157 % of control and 236 % of control | T/C (dose: 1.0 micrograms/kg/injection, schedule: Q01DX009 (ip), vehicle: saline): 104 % of control | T/C (dose: 8.0 micrograms/kg/injection, schedule: Q01DX009 (ip), vehicle: saline): 189 % of control

N/C(=N\O)c1cccnc1
T/C (dose: 25.0 mg/kg/injection, schedule: Q01DX009 (ip), vehicle: water): 98 % of control | T/C (dose: 50.0 mg/kg/injection, schedule: Q01DX009 (ip), vehicle: water): 106 % of control | T/C (dose: 100.0 mg/kg/injection, schedule: Q01DX009 (ip), vehicle: saline with Tween-80): 100 % of control | T/C (dose: 100.0 mg/kg/injection, schedule: Q01DX009 (ip), vehicle: water): 101 % of control | T/C (dose: 100.0 mg/kg/injection, schedule: Q04DX003 (ip), vehicle: water): 100 % of control | T/C (dose: 200.0 mg/kg/injection, schedule: Q01DX009 (ip), vehicle: saline with Tween-80): 96 % of control | T/C (dose: 200.0 mg/kg/injection, schedule: Q01DX009 (ip), vehicle: water): 97 % of control | T/C (dose: 200.0 mg/kg/injection, schedule: Q04DX003 (ip), vehicle: water): 107 % of control

NC(=S)N/N=C1/c2ccccc2-c2cc(Br)ccc21
T/C (dose: 50.0 mg/kg/injection, schedule: Q04DX003 (ip), vehicle: Klucel (hydroxypropylcellulose) (HPC)): 106 % of control | T/C [2]: 97 % of control | T/C [4]: 100 % of control

Cc1cc(Nc2ccc(C)c(C)c2)nc(N)n1
T/C (dose: 100.0 mg/kg/injection, schedule: Q01DX Z (ip), vehicle: methylcellulose (MC)): 108 % of control

C=CCNC(=O)N(CC)C(=NCC)c1ccc(NC(=O)c2ccc(C(=O)Nc3ccc(C(=NCC)N(CC)C(=O)NCC=C)cc3)cc2)cc1
T/C (dose: 3.87 mg/kg/injection, schedule: Q01DX015 (ip), vehicle: methylcellulose (MC)): 104 % of control

COc1ccc([N+](=O)[O-])cc1NC(=O)Nc1ccc(C(=O)OCC(C)C)cc1
T/C [1]: 100 % of control | T/C [3]: 100 % of control | T/C [5]: 95 % of control

CCCCCCCCCCCCC/C=C\C(=O)N(CCCCN(C)C)CCCCN(C)C
T/C (dose: 2.0 mg/kg/injection, schedule: Q01DX009 (ip), vehicle: carboxymethylcellulose (CMC)): 107 % of control | T/C (dose: 4.0 mg/kg/injection, schedule: Q01DX009 (ip), vehicle: carboxymethylcellulose (CMC)): 104 % of control | T/C (dose: 6.0 mg/kg/injection, schedule: Q01DX009 (ip), vehicle: carboxymethylcellulose (CMC)): 101 % of control | T/C (dose: 8.0 mg/kg/injection, schedule: Q01DX009 (ip), vehicle: carboxymethylcellulose (CMC)): 103 % of control | T/C (dose: 10.0 mg/kg/injection, schedule: Q01DX009 (ip), vehicle: carboxymethylcellulose (CMC)): 90 % of control
